Data published in PubChem BioAssay (NCI).
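Method: 48-hour compound exposure of cells in 96-well plates, five concentrations, linear interpolation of endpoints. The concentration for full growth arrest is given as TGI.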

Experiments:
Assay in all cases: NCI tumour cell line growth inhibition, 48 h
MDA-N = test system: MDA-N
A549 NSCLC = test system: A549 NSCLC
CCRF-CEM leukemia = test system: CCRF-CEM leukemia
SW-620 colon = test system: SW-620 colon
PC-3 prostate = test system: PC-3 prostate
NCI/ADR-RES ovarian = test system: NCI/ADR-RES ovarian
MCF7 breast = test system: MCF7 breast
MDA-MB-231 breast = test system: MDA-MB-231 breast
BT-549 breast = test system: BT-549 breast
SF-295 CNS = test system: SF-295 CNS
IGROV1 ovarian = test system: IGROV1 ovarian
SF-268 CNS = test system: SF-268 CNS
OVCAR-4 ovarian = test system: OVCAR-4 ovarian
HOP-92 NSCLC = test system: HOP-92 NSCLC
LOX IMVI melanoma = test system: LOX IMVI melanoma
RXF 393 renal = test system: RXF 393 renal
HL-60(TB) leukemia = test system: HL-60(TB) leukemia
SN12C renal = test system: SN12C renal
MALME-3M melanoma = test system: MALME-3M melanoma
SF-539 CNS = test system: SF-539 CNS
M14 melanoma = test system: M14 melanoma
OVCAR-3 ovarian = test system: OVCAR-3 ovarian
NCI-H23 lung = test system: NCI-H23 lung
HOP-62 NSCLC = test system: HOP-62 NSCLC
SNB-75 CNS = test system: SNB-75 CNS
NCI-H522 lung = test system: NCI-H522 lung
TK-10 renal = test system: TK-10 renal
SR leukemia = test system: SR leukemia
MOLT-4 leukemia = test system: MOLT-4 leukemia
NCI-H226 lung = test system: NCI-H226 lung
HCT-15 colon = test system: HCT-15 colon
UO-31 renal = test system: UO-31 renal
KM12 colon = test system: KM12 colon
SNB-19 CNS = test system: SNB-19 CNS
COLO 205 colon = test system: COLO 205 colon
SK-OV-3 ovarian = test system: SK-OV-3 ovarian
U251 CNS = test system: U251 CNS
RPMI-8226 leukemia = test system: RPMI-8226 leukemia
UACC-257 melanoma = test system: UACC-257 melanoma
OVCAR-5 ovarian = test system: OVCAR-5 ovarian
NCI-H460 lung = test system: NCI-H460 lung
SK-MEL-5 melanoma = test system: SK-MEL-5 melanoma
CAKI-1 renal = test system: CAKI-1 renal
MDA-MB-435 = test system: MDA-MB-435
SK-MEL-28 melanoma = test system: SK-MEL-28 melanoma
SK-MEL-2 melanoma = test system: SK-MEL-2 melanoma
UACC-62 melanoma = test system: UACC-62 melanoma
ACHN renal = test system: ACHN renal
HT29 colon = test system: HT29 colon
A498 renal = test system: A498 renal
HCT-116 colon = test system: HCT-116 colon
EKVX NSCLC = test system: EKVX NSCLC
OVCAR-8 ovarian = test system: OVCAR-8 ovarian
786-0 renal = test system: 786-0 renal
HS 578T breast = test system: HS 578T breast
DU-145 prostate = test system: DU-145 prostate

Measured: TGI

NC(CSC(=O)c1ccccc1)C(=O)O (stereo unspecified)
> 100 µM: all assays above
